Experimental data: PMC10604444, “Extra-Synaptic GABAA Receptor Potentiation and Neurosteroid-Induced Learning Deficits Are Inhibited by GR3027, a GABAA Modulating Steroid Antagonist” (Biomolecules, 2023)
Like-named read-outs stand apart in the source and are kept apart here.

How the values were obtained:
[1] = molecular target: T1, human α1β2γ2L GABAA receptors expressed in HEK-293 cells (Homo sapiens, UniProt P14867+P47870); assay: Whole-cell patch clamp of GABA/THDOC-evoked currents, synaptic protocol (Dynaflow); assay type: cell-based; conditions: for Reduction of AUC of THDOC-induced GABA response: n = 8, p ≤ 0.05
T1 construct: The coding regions of the human GABAA receptor subunits were then amplified by PCR; expressed in transfected cells; host or cells: HEK-293 (permanently transfected, pcDNA3.1 vectors, CMV promoter)
Excerpt: Wild-type HEK-293 cells (passage 4, originating from Pasteur Institute, Paris, France) were permanently transfected with vectors including the human CMV promoter for the constitutive expression of the human α5, β3, and γ2L GABAA receptor subunits (α5β3γ2L) or the human α1, β2, and γ2L GABAA receptor subunits (α1β2γ2L). The production of the plasmids used in the sub-cloning of the different subunits is published in Rahman et al..
The electrophysiological recordings from HEK-293 cells were performed with the whole-cell voltage clamp technique, at room temperature (21–23 °C). After compensation for liquid junction potential, a steady holding potential of −17 mV was used in all experiments. Patch pipettes were pulled from borosilicate glass (Bergman Labora AB, Danderyd, Sweden) and polished to a resistance of 2–5 MΩ when filled with intracellular solution and immersed in a bath (extracellular) solution (for solutions, see below). The pipette tips were filled by immersion in standard intracellular solution and subsequent back-filling with intracellular solution. The recordings were made using an Axopatch 200B amplifier and a Digidata 1322A (Axon Instruments, Foster City, CA, USA) controlled via a Pentium processor-based personal computer. Data were acquired using the pCLAMP software sampled at 10 kHz, filtered at 2–10 kHz, and analyzed with Clampfit (versions 9.0, both from Axon Instruments, Foster City, CA, USA). A series resistance between the pipette and cell membrane not higher than 20 MΩ was accepted. No series resistance compensation was used. The stability of series resistance was monitored repeatedly from the time course of capacitative transients during the experiments. The measured liquid junction potential between extracellular and intracellular solutions was subtracted from all data presented, as previously described. All experiments were performed at room temperature (21–23 °C).
In all electrophysiological experiments, tetrahydro-deoxycorticosterone (THDOC) was used as a positive GABAA receptor steroid modulator (PAM) to mimic the effect of AP on central GABAA channels. […] THDOC (Sigma Chemical Co., St. Louis, MO, USA) and GR3027 (3α-ethynyl, 3β-hydroxyl, 5α-androstan-17-oxime, golexanolone, Umecrine Cognition AB, Stockholm, Sweden) were dissolved in dimethyl sulfoxide (DMSO) using ultrasound, for the preparation of solutions containing a final DMSO concentration of 0.1%. GR3027 was discovered within a series of molecules developed and patented by T. Bäckström and G. Ragagnin, (patent WO 2008/063128). All solutions were complemented with DMSO to achieve the same final concentration as in the steroid-containing test solution. GABA (Sigma Chemical Co., St. Louis, MO, USA) was first prepared as a stock solution (dissolved in EC with ultrasonic treatment) to the desired concentrations, with the corresponding final concentrations of test solutions (30 µM and 0.3 µM; see protocols below). GABA was added to the experimental solution without a change in osmolarity.
The experimental protocols were designed to mimic the physiological conditions of the tonic (extra-synaptic) and phasic (synaptic) activation of GABAA receptors observed in central neurons, depending on the subunit compositions, respectively. GABA-evoked currents in HEK-293 cells expressing extra-synaptic (α5β3γ2L) or synaptic (α1β2γ2L) types of GABAA receptors were studied using the conventional whole-cell patch clamp technique. To mimic the physiological GABA exposure, the HEK-293 cells expressing α1β2γ2L GABAA receptors were exposed to short applications (40 ms) of 30 µM GABA, whereas HEK-293 cells expressing α5β3γ2L GABAA receptors were exposed to prolonged applications (6 s) of 0.3 µM GABA, either in the absence or presence of THDOC and/or GR3027.

[2] = Pharmacokinetic analysis of GR3027 in plasma after i.v. and p.o. administration; assay type: in vivo, rat; conditions: for AUC: male Sprague-Dawley rats, 0-24 h; for Cmax / Tmax / half-life: rat plasma; for half-life: read-out: t½; for k el: in vivo
Method: Ten male Sprague-Dawley rats were used to assess PK with GR3027 given orally and intravenously, respectively. Animals were kept at room temperature with artificial light under a 12/12 h light/dark schedule, and with food and water ad libitum. Animals were given 2 mg/kg i.v. in 10% 2-hydroxypropyl-beta-cyclodextrin or 10 mg/kg orally. Approximately 50 µL blood samples were taken at 15 min, 30 min, 1 h, 2 h, 4 h, 8 h, 12 h, and 24 h after oral dosing, and 5 min, 15 min, 30 min, 1 h, 2 h, 4 h, 8 h, 12 h, and 24 h after intravenous dosing, and plasma was frozen. The analysis method has been described earlier and is here briefly described. All the samples were analyzed in triplicate by Admescope Ltd., Oulu, Finland, using an LC/MS/MS method developed for the purpose, using a Waters ACQUITY UPLC_Waters XEVO-TQS triple-quadrupole mass spectrometer.
Blood/plasma samples were obtained at several time points after the i.v. and p.o. administration of GR3027 to rats. The maximum plasma concentration (Cmax) and the time to Cmax (Tmax) were derived directly from the plasma concentration data. The results are shown in Table 4 as the area under the concentration–time curve (AUC, 0–24 h), elimination half-life in plasma (t1/2), elimination rate constant (Ke), total body clearance (CL), and mean residence time (MRT), i.e., how long GR3027 remained in the body. The tentative oral bioavailability (F) was calculated by dividing the dose-normalized AUC after p.o. administration by the dose-normalized AUC after i.v. administration, i.e., F = [(AUC(p.o.)/Dose(p.o.))///(AUC(i.v)/Dose (i.v.))], and reported as percentages (%).

[3] = male, Sprague-Dawley, iv, 2 mg/kg i.v., mean
[4] = male, Sprague-Dawley, po, 10 mg/kg p.o., mean

T1 sequence (P14867 28-456): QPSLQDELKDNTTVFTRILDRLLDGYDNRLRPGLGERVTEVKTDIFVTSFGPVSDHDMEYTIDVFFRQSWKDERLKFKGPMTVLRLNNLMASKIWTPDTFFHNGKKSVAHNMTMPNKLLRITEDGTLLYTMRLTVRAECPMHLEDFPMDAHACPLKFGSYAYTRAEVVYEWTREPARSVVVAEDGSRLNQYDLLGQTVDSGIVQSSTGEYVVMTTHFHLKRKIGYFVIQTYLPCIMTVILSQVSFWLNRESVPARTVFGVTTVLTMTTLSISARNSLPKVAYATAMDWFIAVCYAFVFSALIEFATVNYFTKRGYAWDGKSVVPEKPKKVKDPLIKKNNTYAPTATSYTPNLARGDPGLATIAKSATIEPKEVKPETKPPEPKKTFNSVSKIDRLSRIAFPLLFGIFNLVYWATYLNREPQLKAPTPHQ
T1 sequence (P47870 25-512 limits assumed): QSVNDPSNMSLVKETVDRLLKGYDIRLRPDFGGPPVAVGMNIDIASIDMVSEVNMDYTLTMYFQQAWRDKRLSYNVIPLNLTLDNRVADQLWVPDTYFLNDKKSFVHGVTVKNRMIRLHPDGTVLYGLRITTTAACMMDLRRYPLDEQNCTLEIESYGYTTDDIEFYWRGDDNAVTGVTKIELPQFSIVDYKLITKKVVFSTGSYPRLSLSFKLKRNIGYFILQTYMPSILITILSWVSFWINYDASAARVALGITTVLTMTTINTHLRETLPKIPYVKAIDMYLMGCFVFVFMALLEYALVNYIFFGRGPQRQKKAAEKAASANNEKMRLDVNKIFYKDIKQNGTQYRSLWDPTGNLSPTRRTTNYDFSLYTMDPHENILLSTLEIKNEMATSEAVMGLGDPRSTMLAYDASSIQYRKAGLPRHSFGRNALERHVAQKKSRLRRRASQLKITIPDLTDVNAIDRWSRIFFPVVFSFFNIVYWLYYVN
T1 sequence (P18507 40-475 partner): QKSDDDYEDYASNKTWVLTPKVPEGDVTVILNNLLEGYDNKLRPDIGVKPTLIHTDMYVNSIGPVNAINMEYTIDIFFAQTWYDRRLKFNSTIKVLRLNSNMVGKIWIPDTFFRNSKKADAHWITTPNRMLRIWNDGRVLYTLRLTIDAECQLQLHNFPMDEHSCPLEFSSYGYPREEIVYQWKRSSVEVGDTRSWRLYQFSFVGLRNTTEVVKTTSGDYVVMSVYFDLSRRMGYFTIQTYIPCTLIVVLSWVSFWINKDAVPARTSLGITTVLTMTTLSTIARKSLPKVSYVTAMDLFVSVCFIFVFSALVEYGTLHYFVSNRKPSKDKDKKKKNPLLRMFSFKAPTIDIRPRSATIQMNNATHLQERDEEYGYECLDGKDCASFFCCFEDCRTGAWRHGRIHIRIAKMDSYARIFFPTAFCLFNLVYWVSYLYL

What does the source list for `C#C[C@]1(O)CC[C@@]2(C)[C@@H](CC[C@@H]3[C@@H]2CC[C@]2(C)/C(=N/O)CC[C@@H]32)C1` [GR3027, 3α-ethynyl-3β-hydroxyl-5α-androstan-17-oxime]?
Reduction of AUC of THDOC-induced GABA response ([1]; 1 µM GR3027 + 200 nM THDOC + 30 µM GABA (40 ms)): −11.6 ± 3.1; Change of AUC of GABA-mediated current, GR3027 alone ([1]; 1 µM GR3027 + 30 µM GABA, no THDOC, NS, n = 21): –3.1 ± 1.7%; Reduction of AUC of THDOC-induced GABA response ([1]; 3 µM GR3027 + 200 nM THDOC + 30 µM GABA (40 ms)): −22.9 ± 2.8; Decrease in THDOC-mediated baseline holding current shift ([1]; 3 µM GR3027, 200 nM THDOC, absence of GABA, n = 7, p ≤ 0.05): −38.1 ± 7.6%; Effect on baseline holding current or 30 µM GABA-mediated currents, GR3027 alone ([1]; GR3027 alone, no THDOC): No difference; Effect on THDOC-induced GABA currents at lower concentrations ([1]; GR3027 below 1 µM (tested from 0.1 µM), 200 nM THDOC + 30 µM GABA): no reduction; AUC ([2]; 2 mg/kg i.v., plasma, mean): 2205586 min ∗ ng/mL; AUC ([2]; 10 mg/kg p.o., plasma, mean): 113568 min ∗ ng/mL; Cmax [2, 3]: 74500 ng/mL; Tmax [2, 3]: 0.0833 h; half-life [2, 3]: 11.3 h; MRT ([2]; male, Sprague-Dawley, plasma, iv, 2 mg/kg i.v., rat, mean): 0.277 h; clearance ([2]; male, Sprague-Dawley, plasma, iv, 2 mg/kg i.v., rat, mean, read-out: Cl (total body clearance)): 1.09 mL/min/kg; bioavailability ([2]; male, Sprague-Dawley, plasma, oral, 10 mg/kg p.o. vs 2 mg/kg i.v., dose-normalized AUC, rat, read-out: F (tentative oral bioavailability)): 1%; MRT ([2]; male, Sprague-Dawley, plasma, po, 10 mg/kg p.o., rat, mean): 4.73 h; Cmax [2, 4]: 504 ng/mL; Tmax [2, 4]: 0.567 h; half-life [2, 4]: 5.17 h; k el ([2]; male, Sprague-Dawley, rat, iv, 2 mg/kg): 2e-05 s⁻¹; k el ([2]; male, Sprague-Dawley, rat, po, 10 mg/kg): 4.17e-05 s⁻¹
